According to US20100069504A1, “AMINOBENZOCYCLOHEPTENE DERIVATIVES, METHODS FOR PREPARING THE SAME AND USES THEREOF IN THERAPY” (UNIVERSITE DE HAUTE ALSACE, priority 2006, published 2010):
Counter-ions that a name gives are not always drawn. Like-named read-outs stand apart in the source and are kept apart here.

Tests used:
AP-N (EC3.4.11.2) = target: T1, AP-N (EC3.4.11.2) (Sus scrofa, UniProt P15145); experiment: AP-N inhibitory activity, inhibition constant Ki by spectrophotometry (Dixon method); type: biochemical, porcine; conditions: L-leucine para-nitroanilide substrate, 30° C., pH=7.5; hydrochloride, racemic mixture
T1 construct: The AP-N is purified in a soluble form according to the method described by Wacker; purchased Sigma Chemical Corporation; host or cells: porcine livers (tissue)
T1 sequence (P15145 33-963 limits assumed): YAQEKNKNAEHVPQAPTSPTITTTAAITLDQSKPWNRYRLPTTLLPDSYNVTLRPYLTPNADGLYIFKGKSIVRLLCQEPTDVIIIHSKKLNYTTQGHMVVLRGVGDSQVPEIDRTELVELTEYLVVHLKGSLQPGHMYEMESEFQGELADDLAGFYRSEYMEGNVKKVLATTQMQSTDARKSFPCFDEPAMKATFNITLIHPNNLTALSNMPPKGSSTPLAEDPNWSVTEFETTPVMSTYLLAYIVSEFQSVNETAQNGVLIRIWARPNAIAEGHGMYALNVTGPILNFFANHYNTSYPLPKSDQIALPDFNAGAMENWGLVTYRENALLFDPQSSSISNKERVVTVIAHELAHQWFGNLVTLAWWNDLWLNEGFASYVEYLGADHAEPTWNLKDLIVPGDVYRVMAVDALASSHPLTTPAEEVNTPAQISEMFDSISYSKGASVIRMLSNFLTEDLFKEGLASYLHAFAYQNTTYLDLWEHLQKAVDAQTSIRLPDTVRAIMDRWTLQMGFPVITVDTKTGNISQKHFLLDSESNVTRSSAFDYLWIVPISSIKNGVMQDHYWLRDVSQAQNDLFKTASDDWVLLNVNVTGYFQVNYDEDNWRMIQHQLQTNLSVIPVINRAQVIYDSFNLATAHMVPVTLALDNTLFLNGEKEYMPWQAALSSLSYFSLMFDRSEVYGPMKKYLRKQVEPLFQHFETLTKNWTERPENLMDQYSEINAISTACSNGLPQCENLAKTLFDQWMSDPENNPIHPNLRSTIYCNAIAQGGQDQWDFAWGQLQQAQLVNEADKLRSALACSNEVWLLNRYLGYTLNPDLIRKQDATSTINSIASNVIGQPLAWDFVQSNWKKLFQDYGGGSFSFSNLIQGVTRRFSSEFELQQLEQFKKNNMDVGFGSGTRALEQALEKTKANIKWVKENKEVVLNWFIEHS
From the text: (§1) LTA4H has an aminopeptidase type activity similar to AP-N and a very close substrate specificity. It is important for the AP-N inhibitory molecules neither to inhibit LTA4H nor aminopeptidases that contain a co-catalytic unit like LAPc.
(§2) The LAPc enzymes from bovine livers and AP-N from porcine livers are marketed by Sigma Chemical Corporation. The AP-N is purified in a soluble form according to the method described by Wacker, H., Lecky, P., Fischer E. H., Stein, E. A. Hely. Chim.
(§3) The kinetic studies are carried out at 30° C. and the reactions are started up by adding the enzymes in 1 mL of test medium: LAPc, 5 units in 10 mM Tris-HCl, 0.1 mM ZnCl2, 5 mM MnCl2, 1 M KCl, pH=8.0; AP-N, 25 mUnits in 10 mM Tris-HCl, pH=7.5 and LTA4H, 5 μg in 10 mM Tris-HCl, 0.1 mM KCl, pH=7.5.
(§4) All the inhibitory molecules are assessed as an hydrochloride and in racemic mixture.

[1] = target: T2, cytosolic leucine aminopeptidase (LAPc) (EC3.4.11.1) (Bos taurus, UniProt P00727); experiment: LAPc inhibition, Ki by spectrophotometry (Dixon method); type: biochemical, bovine
T2 construct: The LAPc enzymes from bovine livers; purchased Sigma Chemical Corporation; host or cells: bovine livers (tissue)
T2 sequence (P00727 1-519): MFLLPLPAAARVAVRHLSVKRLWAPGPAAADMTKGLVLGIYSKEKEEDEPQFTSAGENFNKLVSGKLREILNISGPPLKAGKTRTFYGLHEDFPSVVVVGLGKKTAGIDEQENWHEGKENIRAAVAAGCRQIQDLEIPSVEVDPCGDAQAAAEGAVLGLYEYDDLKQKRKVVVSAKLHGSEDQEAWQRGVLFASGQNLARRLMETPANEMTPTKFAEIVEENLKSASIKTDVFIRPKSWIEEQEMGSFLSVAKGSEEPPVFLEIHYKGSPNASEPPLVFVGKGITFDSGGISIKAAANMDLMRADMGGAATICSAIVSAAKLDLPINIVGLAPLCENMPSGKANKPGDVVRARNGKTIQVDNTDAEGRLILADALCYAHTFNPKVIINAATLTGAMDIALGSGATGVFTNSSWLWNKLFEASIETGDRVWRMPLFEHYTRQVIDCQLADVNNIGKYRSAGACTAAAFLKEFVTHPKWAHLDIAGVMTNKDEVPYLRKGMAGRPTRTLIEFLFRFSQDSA
From the text: as §1, §2, §3, §4

[2] = target: T3, human recombinant leukotriene A4 hydrolase (LTA4H) (EC3.3.2.6) (Homo sapiens, UniProt P09960); experiment: LTA4H aminopeptidase inhibition, Ki by spectrophotometry (Dixon method); type: biochemical; conditions: alanine para-nitroanilide substrate, 30° C., pH=7.5; hydrochloride, racemic mixture
T3 sequence (P09960 1-611): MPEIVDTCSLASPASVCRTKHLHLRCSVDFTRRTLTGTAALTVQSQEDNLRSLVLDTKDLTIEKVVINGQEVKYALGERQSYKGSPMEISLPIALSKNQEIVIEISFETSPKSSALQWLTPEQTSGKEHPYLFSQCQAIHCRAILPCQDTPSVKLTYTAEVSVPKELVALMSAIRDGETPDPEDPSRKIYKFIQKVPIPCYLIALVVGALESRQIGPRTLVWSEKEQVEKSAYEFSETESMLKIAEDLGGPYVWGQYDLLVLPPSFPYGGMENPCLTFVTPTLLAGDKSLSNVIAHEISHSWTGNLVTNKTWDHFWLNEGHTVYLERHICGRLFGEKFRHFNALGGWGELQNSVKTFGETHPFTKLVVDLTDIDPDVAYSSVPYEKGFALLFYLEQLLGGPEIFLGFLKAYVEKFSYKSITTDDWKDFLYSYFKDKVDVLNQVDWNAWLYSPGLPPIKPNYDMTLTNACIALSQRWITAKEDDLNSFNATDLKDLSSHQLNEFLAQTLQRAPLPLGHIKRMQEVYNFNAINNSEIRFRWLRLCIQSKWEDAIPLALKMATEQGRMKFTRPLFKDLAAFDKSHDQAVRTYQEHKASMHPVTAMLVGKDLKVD
Procedure: as §1, §3, §4

AP-N from porcine livers = target: T4, AP-N from porcine livers (Sus scrofa, UniProt P15145); experiment: Stability in aqueous solution, followed by AP-N inhibition over at least 10 hours; type: biochemical; conditions: read-out: inhibition of AP-N throughout the test
T4 construct: The AP-N is purified in a soluble form according to the method described by Wacker; purchased Sigma Chemical Corporation; host or cells: porcine livers (tissue)
T4 sequence (P15145 33-963 limits assumed): T1 sequence (P15145 33-963 limits assumed)
Procedure: The enzymatic tests are carried out at 25° C. in 20 mM Tris-HCl, pH=7.5 with 0.2 mM L-leucine para-nitroanilide as a substrate, in a total reaction volume of 1 mL. […] The reaction is started up by adding 3 milliunits of AP-N from porcine livers.
Under these experimental conditions, the linear kinetics is monitored for at least 10 hours.

[3] = L-leucine para-nitroanilide substrate, 30° C., pH=8.0, hydrochloride, racemic mixture, read-out: Ki (M) LAPc (EC3.4.11.1)

Ki (AP-N (EC3.4.11.2))	Ki [1, 3]	melting point	Ki [2]	Structure (SMILES)	Ki [1]	inhibition at 200 µM (AP-N from porcine livers)
12 µM	> 0.001 M	156 to 158 °C	> 1000 µM	Cl.NC1CCc2ccccc2C(CCCc2ccccc2)C1=O (racemic) [EX 6, 5-phenylpropyl-7-amino-5,7,8,9-tetrahydro-benzocyclohepten-6-one hydrochloride]	–	–
–	2e-05 M	–	> 1000 µM	NC1CCc2cccc(-c3ccccc3)c2CC1=O (racemic) [EX 7, 7-amino-4-phenyl-5,7,8,9-tetrahydro-benzocyclohepten-6-one hydrochloride]	–	–
–	> 0.001 M	–	> 1000 µM	NC1CCc2c(Br)cccc2CC1=O (racemic) [EX 9, 7-amino-1-bromo-5,7,8,9-tetrahydro-benzocyclohepten-6-one hydrochloride]	–	–
0.3 µM	> 0.001 M	–	> 1000 µM	NC1CCc2ccccc2C(F)C1=O (racemic) [EX 3, 7-amino-5-fluoro-5,7,8,9-tetrahydro-benzocyclohepten-6-one hydrochloride]	–	–
–	–	270 to 280 °C	–	Cl.NC1CCc2ccccc2CC1=NO (stereo not drawn)	–	–
0.08 µM	> 0.001 M	–	> 1000 µM	NC1CCc2ccccc2C(SCc2ccccc2)C1=O (racemic) [EX 8, 5-benzylsulphanyl-7-amino-5,7,8,9-tetrahydro-benzocyclohepten-6-one hydrochloride]	–	–

Structure (SMILES)	Ki (AP-N (EC3.4.11.2))	Ki [1, 3]	melting point	Ki [2]	Ki [1]	inhibition at 200 µM (AP-N from porcine livers)
NC1Cc2ccccc2CC1=O (racemic) [EX 10, 2-amino-3-tetralone, reference compound]	–	–	–	> 1000 µM	0.00012 M	–
Cl.NC1CCc2ccccc2CC1=O (racemic) [EX 2, 7-amino-5,7,8,9-tetrahydro-benzocyclohepten-6-one hydrochloride]	1 µM	> 0.001 M	–	> 1000 µM	–	50%
